Marks after values point to notes of the source that are not given here.
Columns and labels:
phenylacetyl-L-glutamine [1] = assay: Urine phenylacetyl-L-glutamine (PAG) corrected by urinary specific gravity; assay type: in vivo, human
From the text: (§1) Medical Examination, Vol. 44, No. 1, 1995, pages 79-83 by Tetsuo Aoki et al. was referred to. A urinary specific gravity 1.022 was converted into a reference value.
(§2) Specific gravity correction value (unit/1.022·UG)=actual measurement value×(1.022−1.000)/(specific gravity value−1.000)

indoxyl sulfate = assay: Urine indoxyl sulfate (IS) corrected by urinary specific gravity; assay type: in vivo, human
From the text: as §1, §2

phenylacetyl-L-glutamine [2] = assay: Human clinical trial in CKD patients: phenylacetyl-L-glutamine in plasma and early morning urine (LC-MS/MS); assay type: in vivo; design: key to Influence on concentration of PAG / Influence on PAG U/P ratio: Excellent effects: ◯; Poor effects: X; No significant difference: —; (◯): whether or not there is an effect of promoting excretion of indoxyl sulfate into the urine cannot be determined
Procedure: 1. […] Patients were assigned to each group so that age, sex, presence of diabetes, and eGFR were not biased. Each group was treated according to the “CKD medical care guide-summary of treatment” (hereinafter referred to as standard treatment).
An alkalinizing agent was not administered to the control group. […] A pH of early morning urine was controlled over time so that the dosage could be increased up to 6 tablets, 3 times a day (morning, noon, evening) as needed according to the discretion of the physician in cases where a pH of early morning urine was less than pH 6.5. To the group B, 3 tablets a day in which each tablet contained 500 mg of sodium bicarbonate were orally administered 3 times a day (morning, noon, evening) for 24 weeks. A pH of early morning urine was controlled over time so that the dosage could be increased up to 6 tablets, 3 times a day (morning, noon, evening) as needed according to the discretion of the physician in cases where a pH of early morning urine was less than pH 6.5.
Early morning urine and blood were collected before the start of administration, and 6 weeks, 12 weeks, and 24 weeks after the start of administration, and each specimen was stored at −80° C. Methods used in the present field for indoxyl sulfate, p-cresyl sulfate, phenylacetyl-L-glutamine, hippuric acid, and argininosuccinic acid in urine and blood (Sato, E., et. al., Metabolic alteration by indoxyl sulfate in skeletal muscle induce uremic sarcopenia in chronic kidney disease., Sci Rep. 2016 Nov. 10; 6:36618. doi: 10.1038/srep36618, and the like) were referred to, and quantitative analysis was performed using the following liquid chromatography triple quadrupole mass spectrometer (LC-MS/MS).
For LC, NANOSPACE SI-2 (manufactured by Shiseido) was used, and […] MGM was selected as the analytical column.
For MS, TSQ Quantiva (manufactured by Thermo Fisher Scientific Co., Ltd.) was used, and five compounds were ionized in the negative mode and detected using the Selected Reaction Monitoring method. The quantitative value was calculated using a calibration curve prepared with a standard solution of each compound.
For statistical analysis, the Mann-Whitney test was used for comparison between groups, and the Wilcoxon test was used for comparison of changes over time. The Pearson test was used for correlation.
Then, the average value and SD of each group were calculated for (i) to (ix) above. For each of (iv) to (ix) above, the average value and SD of each group were calculated for all data of 6 weeks, 12 weeks, and 24 weeks after the start of administration in each group.

hippuric acid = assay: Urine hippuric acid (HA) corrected by urinary specific gravity; assay type: in vivo, human
From the text: as §1, §2

[3] = 0 W, before the start of administration
[4] = 6-24 W, all data of 6, 12 and 24 weeks

## O=C([O-])O.[Na+] [Bicarbonate, sodium bicarbonate]
phenylacetyl-L-glutamine [1]; 0 W
  Urine PAG, specific gravity corrected: 203.6 ± 169.1 μg · mL^−1/1.022 · UG
phenylacetyl-L-glutamine [1]; 6-24 W, all data
  Urine PAG, specific gravity corrected: 162.0 ± 182.5 μg · mL^−1/1.022 · UG
  Urine PAG, specific gravity corrected, % Relative value vs week 0: 87 ± 60%
  Urine PAG, specific gravity corrected, difference vs week 0: −41.6 ± 126.8 μg · mL^−1/1.022 · UG
phenylacetyl-L-glutamine [1]; 6 W
  Urine PAG, specific gravity corrected: 202.9 ± 260.9 μg · mL^−1/1.022 · UG
  Urine PAG, specific gravity corrected, % Relative value vs week 0: 97 ± 71%
  Urine PAG, specific gravity corrected, difference vs week 0: −0.7 ± 162.0 μg · mL^−1/1.022 · UG
phenylacetyl-L-glutamine [1]; 12 W
  Urine PAG, specific gravity corrected, % Relative value vs week 0: 76 ± 60%
  Urine PAG, specific gravity corrected, difference vs week 0: −67.6 ± 91.9 ^ μg · mL^−1/1.022 · UG
phenylacetyl-L-glutamine [1]; 24 W
  Urine PAG, specific gravity corrected: 147.1 ± 116.4 μg · mL^−1/1.022 · UG
  Urine PAG, specific gravity corrected, % Relative value vs week 0: 88 ± 49%
  Urine PAG, specific gravity corrected, difference vs week 0: −56.5 ± 113.7 μg · mL^−1/1.022 · UG
Indoxyl sulfate; 6-24 W, all data
  Urine IS, specific gravity corrected: 76.7 ± 38.0 μg · mL^−1/1.022 · UG
  Urine IS, specific gravity corrected, % Relative value vs week 0: 89 ± 45%
  Urine IS, specific gravity corrected, difference vs week 0: −15.9 ± 34.4 μg · mL^−1/1.022 · UG
Indoxyl sulfate; 6 W
  Urine IS, specific gravity corrected: 83.3 ± 41.9 μg · mL^−1/1.022 · UG
  Urine IS, specific gravity corrected, % Relative value vs week 0: 95 ± 30%
  Urine IS, specific gravity corrected, difference vs week 0: −9.3 ± 27.7 μg · mL^−1/1.022 · UG
Indoxyl sulfate; 12 W
  Urine IS, specific gravity corrected, % Relative value vs week 0: 77 ± 42%
  Urine IS, specific gravity corrected, difference vs week 0: −27.0 ± 32.9^ μg · mL^−1/1.022 · UG
Indoxyl sulfate; 24 W
  Urine IS, specific gravity corrected: 81.1 ± 41.6 μg · mL^−1/1.022 · UG
  Urine IS, specific gravity corrected, % Relative value vs week 0: 95 ± 59%
  Urine IS, specific gravity corrected, difference vs week 0: −11.4 ± 40.8 μg · mL^−1/1.022 · UG
phenylacetyl-L-glutamine [2]; [3]
  Phenyl Acetyl L-Glutamine (PAG)-Urine/Plasma ratio: 102.2 ± 96.5
  Plasma Phenyl Acetyl L-Glutamine (PAG): 1324 ± 949 ng/mL
  Urine Phenyl Acetyl L-Glutamine (PAG) (early morning urine): 124676 ± 149757 ng/mL
phenylacetyl-L-glutamine [2]; [4]
  PAG - Urine/Plasma ratio, change from week 0: −14.9 ± 95.3
  Phenyl Acetyl L-Glutamine (PAG)-Urine/Plasma ratio: 87.3 ± 86.2
  Plasma PAG, change from week 0: -98.6 ± 688.1 ng/mL
  Plasma Phenyl Acetyl L-Glutamine (PAG): 1226 ± 983 ng/mL
  Urine PAG, change from week 0: -13663 ± 74566 ng/mL
  Urine Phenyl Acetyl L-Glutamine (PAG) (early morning urine): 109378 ± 163923 ng/mL
phenylacetyl-L-glutamine [2]; 6 W
  PAG - Urine/Plasma ratio, change from week 0: −8.5 ± 57.8
  Phenyl Acetyl L-Glutamine (PAG)-Urine/Plasma ratio: 93.7 ± 84.0
  Plasma PAG, change from week 0: -84.0 ± 636.1 ng/mL
  Plasma Phenyl Acetyl L-Glutamine (PAG): 1240 ± 1062 ng/mL
  Urine PAG, change from week 0: 20077 ± 118811 ng/mL
  Urine Phenyl Acetyl L-Glutamine (PAG) (early morning urine): 144753 ± 246773 ng/mL
phenylacetyl-L-glutamine [2]; 12 W
  PAG - Urine/Plasma ratio, change from week 0: −31.8 ± 81.8
  Phenyl Acetyl L-Glutamine (PAG)-Urine/Plasma ratio: 70.4 ± 46.8
  Plasma PAG, change from week 0: -171.6 ± 896.9 ng/mL
  Plasma Phenyl Acetyl L-Glutamine (PAG): 1153 ± 1000 ng/mL
  Urine PAG, change from week 0: -42198 ± 85069 ng/mL
  Urine Phenyl Acetyl L-Glutamine (PAG) (early morning urine): 82478 ± 112943^b ng/mL
phenylacetyl-L-glutamine [2]; 12 and 24 weeks after administration, compared to before administration
  concentration of phenylacetyl-L-glutamine in urine: such an effect was not recognized
phenylacetyl-L-glutamine [2]; 24 W
  PAG - Urine/Plasma ratio, change from week 0: −4.3 ± 133.9
  Phenyl Acetyl L-Glutamine (PAG)-Urine/Plasma ratio: 97.9 ± 116.4
  Plasma PAG, change from week 0: -40.3 ± 514.7 ng/mL
  Plasma Phenyl Acetyl L-Glutamine (PAG): 1284 ± 945 ng/mL
  Urine PAG, change from week 0: -23774 ± 117957 ng/mL
  Urine Phenyl Acetyl L-Glutamine (PAG) (early morning urine): 100902 ± 91424 ng/mL
phenylacetyl-L-glutamine [2]; Plasma, comparison with Cont
  Influence on concentration of PAG: —
phenylacetyl-L-glutamine [2]; Plasma, comparison with reference drug
  Influence on concentration of PAG: —
phenylacetyl-L-glutamine [2]; comparison with Cont
  Influence on PAG U/P ratio: —
phenylacetyl-L-glutamine [2]; comparison with reference drug
  Influence on PAG U/P ratio: —
phenylacetyl-L-glutamine [2]; Urine, comparison with Cont
  Influence on concentration of PAG: —
phenylacetyl-L-glutamine [2]; Urine, comparison with reference drug
  Influence on concentration of PAG: X
phenylacetyl-L-glutamine [2]; compared to before administration
  concentration of phenylacetyl-L-glutamine in plasma (decreasing effect): strongly recognized
Hippuric acid; 0 W
  Urine HA, specific gravity corrected: 202.3 ± 185.6 μg · mL^−1/1.022 · UG
Hippuric acid; 6-24 W, all data
  Urine HA, specific gravity corrected: 170.2 ± 101.6 μg · mL^−1/1.022 · UG
  Urine HA, specific gravity corrected, % Relative value vs week 0: 118 ± 106%
  Urine HA, specific gravity corrected, difference vs week 0: −32.1 ± 160.3 μg · mL^−1/1.022 · UG
Hippuric acid; 6 W
  Urine HA, specific gravity corrected: 161.8 ± 111.1 μg · mL^−1/1.022 · UG
  Urine HA, specific gravity corrected, % Relative value vs week 0: 104 ± 89%
  Urine HA, specific gravity corrected, difference vs week 0: −40.5 ± 171.7 μg · mL^−1/1.022 · UG
Hippuric acid; 12 W
  Urine HA, specific gravity corrected: 171.1 ± 87.0 μg · mL^−1/1.022 · UG
  Urine HA, specific gravity corrected, % Relative value vs week 0: 133 ± 134%
  Urine HA, specific gravity corrected, difference vs week 0: −31.2 ± 163.7 μg · mL^−1/1.022 · UG
Hippuric acid; 24 W
  Urine HA, specific gravity corrected: 177.7 ± 111.0 μg · mL^−1/1.022 · UG
  Urine HA, specific gravity corrected, % Relative value vs week 0: 118 ± 96%
  Urine HA, specific gravity corrected, difference vs week 0: −24.6 ± 155.3 μg · mL^−1/1.022 · UG
